One assay has as its target T1, 5HT2B receptors (Homo sapiens, UniProt P41595).
T1 construct: expressed in transfected cells; host or cells: CHO-K1 cells
In words: Human 5-HT2B functional assay in CHO-K1 cells (calcium flux, FLIPR). Type of assay: cell-based. As to conditions: for Emax: CHO-K1 cells, percentage relative to the effect of serotonin, read-out: Emax (%), 5-HT2B Agonist Activity. The gist of the method: (§1)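 EC50 came from a 4-parameter logistic fit, with Emax expressed relative to serotonin, of intracellular Ca2+ rises read on FLIPR at 480/530 nm, 25° C, over 3 min. Compounds ran from 10 μM in six 1:10 steps (0.2% DMSO) on serum-starved CHO-K1 transfectants pre-loaded 60 min with Ca4 dye and probenecid.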
For orientation: Calcium assays in cells follow changes in intracellular calcium, usually with a dye or a luminescent sensor.

A further assay addresses T2, 5HT2C receptors (Homo sapiens, UniProt P28335).
T2 sequence (P28335 33-458): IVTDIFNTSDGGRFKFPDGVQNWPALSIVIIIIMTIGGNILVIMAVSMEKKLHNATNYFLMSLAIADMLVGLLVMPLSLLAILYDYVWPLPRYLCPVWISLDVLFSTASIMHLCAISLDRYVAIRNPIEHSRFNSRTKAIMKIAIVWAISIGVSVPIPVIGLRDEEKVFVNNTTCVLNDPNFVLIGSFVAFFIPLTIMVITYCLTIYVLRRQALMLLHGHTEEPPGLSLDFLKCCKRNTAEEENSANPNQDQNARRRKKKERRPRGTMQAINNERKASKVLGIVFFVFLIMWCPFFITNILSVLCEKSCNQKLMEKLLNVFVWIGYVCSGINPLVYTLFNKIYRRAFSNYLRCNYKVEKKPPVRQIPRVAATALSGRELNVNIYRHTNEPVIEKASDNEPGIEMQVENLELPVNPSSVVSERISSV
In words: Human 5-HT2C functional assay in CHO-K1 cells (calcium flux, FLIPR). It is filed as cell-based. On the set-up: expressed in transfected cells; host or cells: CHO-K1 cells. The gist of the method: as §1

[1] abbreviates: CHO-K1 cells over-expressing 5HT2B, calcium flux, read-out: EC50 (μM), 5-HT2B Agonist Activity.
Setting [2] is: CHO-K1 cells over-expressing 5HT2C, calcium flux, read-out: EC50 (μM), 5-HT2c Agonist Activity.
[3] abbreviates: CHO-K1 cells, percentage relative to the effect of serotonin, read-out: Emax (%), 5-HT2c Agonist Activity.
Setting [4] is: CHO-K1, read-out: Emax (%), 5-HT2c Agonist Activity, CHO-K1 cells, percentage relative to the effect of serotonin.

SMILES strings stand for the structures. Like-named read-outs stand apart in the source and are kept apart here.

T1 sequence (P41595 whole entry): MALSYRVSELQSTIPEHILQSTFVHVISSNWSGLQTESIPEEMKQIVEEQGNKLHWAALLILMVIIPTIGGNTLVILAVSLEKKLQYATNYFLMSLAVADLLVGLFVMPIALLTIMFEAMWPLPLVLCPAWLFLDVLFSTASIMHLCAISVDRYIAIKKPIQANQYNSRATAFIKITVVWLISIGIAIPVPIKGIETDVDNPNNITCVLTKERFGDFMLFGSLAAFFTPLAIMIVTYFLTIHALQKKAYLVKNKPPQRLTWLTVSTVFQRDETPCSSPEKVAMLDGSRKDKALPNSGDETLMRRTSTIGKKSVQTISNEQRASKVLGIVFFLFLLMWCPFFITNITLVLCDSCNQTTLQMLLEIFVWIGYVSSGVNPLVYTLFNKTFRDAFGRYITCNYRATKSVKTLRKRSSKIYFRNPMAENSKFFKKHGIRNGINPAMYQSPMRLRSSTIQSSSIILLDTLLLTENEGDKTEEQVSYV

Usually EC50 stands for the concentration giving half of the maximal effect. Usually Emax stands for the maximal effect, on the per cent scale that the assay sets. Turning to `CCN1C(=O)CC2CN(C)CCN2c2ccc(Cl)cc21` (stereo not drawn) [Example 78, 9-chloro-7-ethyl-3-methyl-1,2,3,4,4a,5-hexahydropyrazino[1,2-a][1,5]benzodiazepin-6(7H)-one], the EC50 on 5HT2B receptors (setting [1]) was above 10 µM; on 5HT2C receptors (setting [2]) it was 1 µM. The Emax on 5HT2C receptors (setting [3]) amounted to 50%.
As for `CC(C)Oc1cccc(-c2ccc3c(c2)N2CCNCC2CC(=O)N3)c1` (stereo not drawn) [Example 94, 10-(3-isopropoxyphenyl)-1,2,3,4,4a,5-hexahydropyrazino[1,2-a][1,5]benzodiazepin-6(7H)-one], the EC50 was above 10 µM at 5HT2B receptors (setting [1]) and 0.008 µM at 5HT2C receptors (setting [2]). Further, the Emax on 5HT2C receptors (setting [3]) is above 120%.
Regarding `FCC(CF)N1CCN2c3ccccc3OCC[C@H]2C1` [Example 265, (4aS)-3-(1,3-difluoropropan-2-yl)-2,3,4,4a,5,6-hexahydro-1H-pyrazino[2,1-d][1,5]benzoxazepine], the EC50 is above 10 µM on 5HT2B receptors (setting [1]) and 2 µM on 5HT2C receptors (setting [2]). At 5HT2C receptors (CHO-K1, read-out: Emax (%), 5-HT2c Agonist Activity), the Emax was 70%.
For `O=C1C[C@H]2CNCCN2c2cc(OCCc3cccc(C(F)(F)F)c3)ccc2N1` [Example 173, (4aS)-10-{2-[3-(trifluoromethyl)phenyl]ethoxy}-1,2,3,4,4a,5-hexahydropyrazino[1,2-a][1,5]benzodiazepin-6(7H)-one], the EC50 on 5HT2B receptors (setting [1]) was above 10 µM; at 5HT2C receptors (setting [2]), 0.004 µM. At 5HT2C receptors (setting [3]), the Emax amounted to 110%.
For the compound `FC(F)(F)c1ccc2c(c1)N1CCNC[C@@H]1CCO2` [Example 217, (4aS)-10-(trifluoromethyl)-2,3,4,4a,5,6-hexahydro-1H-pyrazino[2,1-d][1,5]benzoxazepine], the EC50 on 5HT2B receptors (setting [1]) is 0.09 µM; on 5HT2C receptors (setting [2]), 0.01 µM. Moreover, the maximal effect (Emax) on 5HT2B receptors came out at 70%; on 5HT2C receptors (setting [3]) it was 100%.
Consider `c1cc(-c2ccc3c(c2)N2CCNC[C@@H]2CCO3)ccn1` [Example 207, (4aS)-10-(pyridin-4-yl)-2,3,4,4a,5,6-hexahydro-1H-pyrazino[2,1-d][1,5]benzoxazepine], for which the results for the EC50 on 5HT2B receptors (setting [1]) and at 5HT2C receptors (setting [2]) were above 10 µM and 0.8 µM, respectively. Moreover, the Emax on 5HT2C receptors (setting [4]) was above 120%.
On to `CN1CCN2c3ccccc3CCCC2C1` (stereo not drawn) [Example 183, 3-methyl-1,2,3,4,4a,5,6,7-octahydropyrazino[1,2-a][1]benzazepine], for which the EC50 was above 10 µM at 5HT2B receptors and 0.003 µM at 5HT2C receptors. Further, the Emax on 5HT2C receptors (setting [4]) is above 120%.
In the case of `O=C1C[C@H]2CNCCN2c2cc(OCCc3ccccn3)ccc2N1` [Example 171, (4aS)-10-[2-(pyridin-2-yl)ethoxy]-1,2,3,4,4a,5-hexahydropyrazino[1,2-a][1,5]benzodiazepin-6(7H)-one], the results for the EC50 on 5HT2B receptors (setting [1]) and on 5HT2C receptors (setting [2]) were above 10 µM and 0.9 µM, respectively. Moreover, on 5HT2C receptors (setting [3]), the Emax amounted to 100%.
The matching figures for `COc1ccccc1-c1ccc2c(c1)N1CCNCC1CC(=O)N2` (stereo not drawn) [Example 63, 10-(2-methoxyphenyl)-1,2,3,4,4a,5-hexahydropyrazino[1,2-a][1,5]benzodiazepin-6(7H)-one]: above 10 µM, 0.09 µM and 110%.
The matching figures for `FC(F)(F)c1cccc2c1OCC[C@H]1CNCCN21` [Example 215, (4aS)-8-(trifluoromethyl)-2,3,4,4a,5,6-hexahydro-1H-pyrazino[2,1-d][1,5]benzoxazepine]: above 10 µM, 0.003 µM and 110%.
Regarding `c1csc(-c2cccc3c2OCC[C@H]2CNCCN32)c1` [Example 249, (4aS)-8-(2-thienyl)-2,3,4,4a,5,6-hexahydro-1H-pyrazino[2,1-d][1,5]benzoxazepine], the EC50 on 5HT2B receptors (setting [1]) was above 10 µM; on 5HT2C receptors (setting [2]), 0.0001 µM. On 5HT2C receptors (setting [3]), the Emax worked out at 75%.
For the compound `O=C1C[C@H]2CNCCN2c2cc(OCC3CC3)ccc2N1` [Example 170, (4aS)-10-(cyclopropylmethoxy)-1,2,3,4,4a,5-hexahydropyrazino[1,2-a][1,5]benzodiazepin-6(7H)-one], the EC50 is above 10 µM on 5HT2B receptors (setting [1]) and 0.02 µM on 5HT2C receptors (setting [2]). The Emax on 5HT2C receptors (setting [3]) was above 120%.
Turning to `O=C1CC2CNCCN2c2cc(Cc3ccccc3)ccc2N1` (stereo not drawn) [Example 185, 10-benzyl-1,2,3,4,4a,5-hexahydropyrazino[1,2-a][1,5]benzodiazepin-6(7H)-one], the EC50 is above 10 µM on 5HT2B receptors (setting [1]) and 0.03 µM on 5HT2C receptors (setting [2]). Also, the Emax on 5HT2C receptors (setting [3]) was above 120%.
Consider `Cc1cccc(-c2ccc3c(c2)N2CCNC[C@@H]2CCO3)c1` [Example 190, (4aS)-10-(3-methylphenyl)-2,3,4,4a,5,6-hexahydro-1H-pyrazino[2,1-d][1,5]benzoxazepine], for which the values for the EC50 at 5HT2B receptors (setting [1]) and at 5HT2C receptors (setting [2]) were above 10 µM and 0.02 µM, respectively. Further, at 5HT2C receptors (setting [3]), the Emax was above 120%.
`CC(=O)c1ccc(-c2ccc3c(c2)N2CCNC[C@@H]2CCO3)cc1` [Example 199, 1-{4-[(4aS)-2,3,4,4a,5,6-hexahydro-1H-pyrazino[2,1-d][1,5]benzoxazepin-10-yl]phenyl}ethanone]: the EC50 was found to be 8 µM at 5HT2B receptors (setting [1]) and 0.9 µM on 5HT2C receptors (setting [2]). Besides, the Emax on 5HT2B receptors is 10%; on 5HT2C receptors (setting [3]), above 120%.
For the compound `Fc1ccc(-c2ccc3c(c2)N2CCNC[C@@H]2CCO3)cc1` [Example 205, (4aS)-10-(4-fluorophenyl)-2,3,4,4a,5,6-hexahydro-1H-pyrazino[2,1-d][1,5]benzoxazepine], the EC50 came to 5 µM on 5HT2B receptors (setting [1]) and 0.05 µM on 5HT2C receptors (setting [2]). Moreover, the results for the Emax at 5HT2B receptors and on 5HT2C receptors (setting [3]) were 10% and above 120%, respectively.
Regarding `CC(O)c1ccc(-c2ccc3c(c2)OCC[C@H]2CNCCN32)cc1` (stereo partly drawn) [Example 228, 1-{4-[(4aS)-2,3,4,4a,5,6-hexahydro-1H-pyrazino[2,1-d][1,5]benzoxazepin-9-yl]phenyl}ethanol], the EC50 was above 10 µM at 5HT2B receptors (setting [1]) and 0.009 µM at 5HT2C receptors (setting [2]). The Emax on 5HT2C receptors (setting [3]) amounted to 100%.
On to `CCc1cccc2c1OCC[C@H]1CNCCN21` [Example 237, (4aS)-8-ethyl-2,3,4,4a,5,6-hexahydro-1H-pyrazino[2,1-d][1,5]benzoxazepine], for which the EC50 at 5HT2B receptors is above 10 µM; at 5HT2C receptors, 0.005 µM. The Emax at 5HT2C receptors (setting [4]) was determined as 90%.
On to `O=C1CC2CNCCN2c2cc(/C=C/c3ccccc3C(F)(F)F)ccc2N1` (stereo not drawn) [Example 142, 10-{(E)-2-[2-(trifluoromethyl)phenyl]vinyl}-1,2,3,4,4a,5-hexahydropyrazino[1,2-a][1,5]benzodiazepin-6(7H)-one], for which the EC50 is above 10 µM at 5HT2B receptors (setting [1]) and 0.08 µM at 5HT2C receptors (setting [2]). Moreover, the Emax on 5HT2C receptors (setting [3]) is above 120%.
For the compound `CC(C)Cc1ccc2c(c1)N1CCNC[C@@H]1CCO2` [Example 213, (4aS)-10-isobutyl-2,3,4,4a,5,6-hexahydro-1H-pyrazino[2,1-d][1,5]benzoxazepine], the results for the EC50 on 5HT2B receptors (setting [1]) and on 5HT2C receptors (setting [2]) were 1 µM and 0.03 µM, respectively. The Emax turned out to be 25% at 5HT2B receptors and 120% at 5HT2C receptors (setting [3]).
In the case of `O=C1C[C@H]2CNCCN2c2c(F)cccc2N1` [Example 86, (4aS)-11-fluoro-1,2,3,4,4a,5-hexahydropyrazino[1,2-a][1,5]benzodiazepin-6(7H)-one], the EC50 at 5HT2B receptors is above 10 µM; on 5HT2C receptors, 0.008 µM. The Emax at 5HT2C receptors (setting [4]) is above 120%.
Turning to `c1ccc(CCc2ccc3c(c2)N2CCNC[C@@H]2CCO3)cc1` [Example 212, (4aS)-10-(2-phenylethyl)-2,3,4,4a,5,6-hexahydro-1H-pyrazino[2,1-d][1,5]benzoxazepine], the EC50 at 5HT2B receptors (setting [1]) stood at 0.4 µM; on 5HT2C receptors (setting [2]), 0.007 µM. The values for the Emax at 5HT2B receptors and on 5HT2C receptors (setting [3]) were 45% and 80%, respectively.
Regarding `CN1CCN2c3cc(-c4cccc(S(C)(=O)=O)c4)ccc3OCC[C@H]2C1` [Example 221, (4aS)-3-methyl-10-[3-(methylsulfonyl)phenyl]-2,3,4,4a,5,6-hexahydro-1H-pyrazino[2,1-d][1,5]benzoxazepine], the EC50 was above 10 µM at 5HT2B receptors (setting [1]) and 0.1 µM at 5HT2C receptors (setting [2]). The Emax at 5HT2C receptors (setting [3]) amounted to 50%.
Regarding `O=C1CC2CNCCN2c2cc(COc3cccc(F)c3)ccc2N1` (stereo not drawn) [Example 114, 10-[(3-fluorophenoxy)methyl]-1,2,3,4,4a,5-hexahydropyrazino[1,2-a][1,5]benzodiazepin-6(7H)-one], the EC50 at 5HT2B receptors (setting [1]) amounted to 0.4 µM; at 5HT2C receptors (setting [2]), 0.05 µM. Further, the results for the Emax on 5HT2B receptors and at 5HT2C receptors (setting [3]) were 30% and above 120%, respectively.
Consider `C[C@H]1CN2c3ccccc3OCC[C@H]2CN1` [Example 271, (2S,4aS)-2-methyl-2,3,4,4a,5,6-hexahydro-1H-pyrazino[2,1-d][1,5]benzoxazepine], for which the EC50 on 5HT2B receptors is above 10 µM; at 5HT2C receptors, 0.1 µM. Further, at 5HT2C receptors (setting [4]), the Emax came to 50%.
Regarding `COc1ccc2c(c1)OCC[C@H]1CN(C)CCN21` [Example 232, (4aS)-9-methoxy-3-methyl-2,3,4,4a,5,6-hexahydro-1H-pyrazino[2,1-d][1,5]benzoxazepine], the values for the EC50 at 5HT2B receptors and at 5HT2C receptors were above 10 µM and 0.05 µM, respectively. The Emax on 5HT2C receptors (setting [4]) stood at 50%.

The record behind these values is US8546377B2 (AbbVie Inc., priority 2009, dated 2013).
